In paper PMC12903969, “Discovery of a Novel and Potent Kir4.1 Inhibitor as a Safe and Rapid‐Onset Antidepressant Agent in Mice” (Advanced Science, 2025):
“And” between values parts separate entries of the source, which are not always exact repeats. Identical values can stand only once.

Tests used:
[1] = system: mice; assay: Hippocampal inflammatory cytokines (IL-6, TNF-α) after 14-day administration; format: in vivo; design: IL-6 / TNF-α: unit not given here; conditions: for IL-6 / TNF-α: hippocampus, 14-day administration, individual animals
[2] = target: T1, Kir4.1 T155A (Homo sapiens, UniProt P78508, T155A); assay: Whole-cell patch clamp, Kir4.1 point mutant T155A; format: cell-based; conditions: JX3212 3 µM (Fig 2D)
T1 construct: expressed in transfected cells; host or cells: CHO-K1
Experimental: Plasmids encoding WT human potassium channels Kir1.1, Kir2.1, Kir2.2, Kir4.1, and Kir4.2 were obtained from the Beijing Genomics Institute. All point mutations were constructed using the QuickChange II Site‐Directed Mutagenesis Kit (Stratagene) and subsequently verified by sequencing.
CHO‐K1 cells were maintained in DMEM/F12 growth medium containing 10% fetal bovine serum. Plasmids encoding the target genes (3600 ng) and enhanced green fluorescent protein (400 ng) were cotransfected into cells using Lipofectamine 2000 (Invitrogen) in accordance with the manufacturer's instructions. Cells were seeded onto poly‐d‐lysine (PDL)‐coated glass coverslips 1 h prior to electrophysiological recordings. […]
Whole‐cell patch‐clamp recordings were obtained either in transiently transfected CHO‐K1 cells or in primary cultured astrocytes at room temperature using standard patch‐clamp techniques with an Axopatch‐700B amplifier (Axon Instruments). […] Macroscopic currents generated by expressed potassium channels were recorded under the voltage‐clamp conditions with an internal pipette solution composed of (in mM): 140 KCl, 5 NaCl, 1 CaCl2, 1 MgCl2, 10 HEPES, and 10 EGTA, pH 7.2 adjusted with KOH. […] Astrocytic resting membrane potentials were recorded under current‐clamp conditions (I = 0 pA) using standard internal and external solutions, determined immediately after achieving whole‐cell mode.

[3] = system: Kir4.1 cKO mice; assay: NSFT in astrocyte-specific Kir4.1 cKO mice; format: in vivo; conditions: 10 mg kg−1 i.p.
Excerpt: Male C57BL/6J mice (6–10 weeks old) and male CD‐1 mice (4–6 months old) were purchased from Shanghai Shengchang Biotechnology Co., Ltd. Kcnj10 ^flox/flox mice were generated by the Cyagen Company (Suzhou, China). The Cas9 protein, two gRNAs (gRNA‐A1: […], gRNA‐A2: […]) and a donor vector containing two loxP sequences flanking exon 2 of mouse Kcnj10 were co‐injected into fertilized eggs. The embryos were transferred to recipient female mice to obtain F0 mice. The genotype was confirmed by PCR using two pairs of primers (F1: 5’‐[…]‐3’, R1: 5’‐[…]‐3’; F2: 5’‐[…]‐3’, R2: 5’‐[…]‐3’) and sequencing. The F0 founder mice were mated with C57BL/6J mice to produce heterozygous F1 offspring. Subsequent intercrosses of F1 heterozygous mice ultimately produced F2 homozygous mice with the Kcnj10 ^flox/flox genotype. Tamoxifen‐induced conditional transgenic mice with Kir4.1 deletion in astrocytes were generated by crossing Aldh1l1‐Cre/ERT2 mice with homozygous Kcnj10 ^flox/flox mice.^[ [32] ^] […]
The mice were individually housed in new cages and deprived of food for 24 h. […] The latency to start chewing food was recorded within 5 min. Immediately thereafter, the mice were placed back in their home cage with pre‐measured food, and the amount consumed in the next 5 min was used as a baseline to account for appetite changes that might affect the outcome.

[4] = target: T2, GluN1/GluN2B NMDA receptor (Homo sapiens, UniProt Q05586+Q13224); assay: Patch clamp of GluN1/GluN2B NMDA receptors in stable HEK293T cells; format: cell-based
T2 construct: expressed in transfected cells
Excerpt: For recording of GluN1/GluN2B NMDA receptors, HEK293T cells stably expressing GluN1 and GluN2B subunits were voltage‐clamped at −60 mV. […] The pipette solution contained (in mM):115 CsF, 10 CsCl, 10 HEPES and 10 BAPTA (pH 7.2 adjusted by CsOH). The bath solution contained (in mM): 140 NaCl, 2.8 KCl, 1 CaCl2, 10 HEPES and 20 sucrose (pH 7.4 adjusted with NaOH).

[5] = system: mice; assay: 21-day chronic administration: body weight, organ weight, serum biochemistry
[6] = 10 mg/kg, 21-day chronic administration, individual animals
[7] = serum, 10 mg/kg, 21-day chronic administration, individual animals

T2 sequence (Q13224 27-1484, other chains not shown): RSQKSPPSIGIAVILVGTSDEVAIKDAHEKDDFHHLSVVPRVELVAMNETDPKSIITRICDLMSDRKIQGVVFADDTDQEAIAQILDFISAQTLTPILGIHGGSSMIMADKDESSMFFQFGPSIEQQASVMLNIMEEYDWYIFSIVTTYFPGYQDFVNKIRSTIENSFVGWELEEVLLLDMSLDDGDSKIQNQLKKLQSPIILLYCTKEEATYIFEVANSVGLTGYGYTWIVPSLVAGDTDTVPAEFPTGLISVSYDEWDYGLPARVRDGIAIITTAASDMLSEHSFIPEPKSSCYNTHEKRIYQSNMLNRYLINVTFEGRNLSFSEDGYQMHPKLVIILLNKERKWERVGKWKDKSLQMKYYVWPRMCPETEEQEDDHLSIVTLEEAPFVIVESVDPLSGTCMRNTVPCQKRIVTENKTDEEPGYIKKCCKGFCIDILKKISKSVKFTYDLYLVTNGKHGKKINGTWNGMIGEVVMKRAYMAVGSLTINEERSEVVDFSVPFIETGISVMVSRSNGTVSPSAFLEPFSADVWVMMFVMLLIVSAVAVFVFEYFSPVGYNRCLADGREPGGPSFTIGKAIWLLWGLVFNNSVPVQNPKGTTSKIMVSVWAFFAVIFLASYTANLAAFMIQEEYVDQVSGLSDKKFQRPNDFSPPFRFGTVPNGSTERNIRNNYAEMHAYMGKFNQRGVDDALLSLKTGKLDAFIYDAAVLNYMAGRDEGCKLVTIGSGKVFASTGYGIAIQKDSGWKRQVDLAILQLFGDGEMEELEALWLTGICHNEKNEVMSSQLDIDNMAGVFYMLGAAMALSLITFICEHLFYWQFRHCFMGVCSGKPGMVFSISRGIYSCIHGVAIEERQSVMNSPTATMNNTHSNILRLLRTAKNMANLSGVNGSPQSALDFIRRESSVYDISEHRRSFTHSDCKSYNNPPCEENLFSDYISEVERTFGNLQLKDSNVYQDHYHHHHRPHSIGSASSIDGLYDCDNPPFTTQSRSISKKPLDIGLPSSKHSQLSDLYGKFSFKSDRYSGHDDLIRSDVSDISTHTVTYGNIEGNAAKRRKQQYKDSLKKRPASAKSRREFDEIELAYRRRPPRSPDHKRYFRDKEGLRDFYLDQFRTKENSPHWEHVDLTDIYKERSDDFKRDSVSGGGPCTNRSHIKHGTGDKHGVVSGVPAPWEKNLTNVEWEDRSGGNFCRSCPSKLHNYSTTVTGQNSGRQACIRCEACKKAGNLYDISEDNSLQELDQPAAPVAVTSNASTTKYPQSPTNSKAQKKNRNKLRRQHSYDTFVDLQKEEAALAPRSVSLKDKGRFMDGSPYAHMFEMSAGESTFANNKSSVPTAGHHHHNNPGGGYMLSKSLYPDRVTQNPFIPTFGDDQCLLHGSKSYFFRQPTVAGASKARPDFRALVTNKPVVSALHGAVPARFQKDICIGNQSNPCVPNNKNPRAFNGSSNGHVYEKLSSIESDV
T1 sequence (P78508 whole entry T155A): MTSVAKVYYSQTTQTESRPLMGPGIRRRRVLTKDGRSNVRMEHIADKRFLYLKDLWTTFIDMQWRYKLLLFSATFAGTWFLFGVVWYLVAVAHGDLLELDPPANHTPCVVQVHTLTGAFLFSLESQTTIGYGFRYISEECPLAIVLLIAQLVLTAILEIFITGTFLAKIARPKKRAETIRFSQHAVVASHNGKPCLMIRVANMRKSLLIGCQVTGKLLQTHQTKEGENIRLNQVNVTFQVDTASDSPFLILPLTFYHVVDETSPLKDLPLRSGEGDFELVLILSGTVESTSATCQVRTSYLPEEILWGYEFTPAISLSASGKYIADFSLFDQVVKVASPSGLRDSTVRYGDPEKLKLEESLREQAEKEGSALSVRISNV

## c1ccc2c(c1)oc1ccc(Nc3ccnc(NCCCN4CCOCC4)n3)cc12 [JX3212, N^4-(dibenzo[b,d]furan-2-yl)-N^2-(3-morpholinopropyl)pyrimidine-2,4-diamine]
[1]; 3/10 mg kg−1 for 14 days
  hippocampal interleukin-6 level (in words): did not elevate
  hippocampal tumor necrosis factor-alpha level (in words): did not elevate
[1]; 3 mg/kg
  IL-6: 45.0571 and 32.8331 and 24.8073 and 32.2935 and 22.1265 and 25.6335 and 36.1041 and 30.8941 and 28.8202 and 44.6187 and 40.1844 and 35.7837 and 22.7841 and 20.9462 and 42.3088
  TNF-α: 465.065 and 545.129 and 550.438 and 437.245 and 389.037 and 473.135 and 223.18 and 189.621 and 460.606 and 247.598 and 569.127 and 488.638 and 325.113 and 294.957
[1]; 10 mg/kg
  IL-6: 35.0924 and 32.8836 and 20.727 and 32.5464 and 25.9876 and 35.1767 and 33.4906 and 33.3389 and 29.4778 and 46.0519 and 38.6332 and 35.1936 and 20.9968 and 23.4416 and 42.3425
  TNF-α: 489.276 and 552.137 and 604.805 and 420.68 and 480.356 and 484.816 and 216.59 and 243.988 and 478.02 and 253.544 and 531.962 and 451.261 and 319.804 and 494.16
[2]
  Mutation: T155A inhibition, single recordings: 94.2403 and 81.3915 and 95.4304
[2]; read-out: Mutation: T155A inhibition, single recordings
  inhibition at 3 µM: 94.3%
[3]
  NSFT latency in Kir4.1 cKO mice vs vehicle (in words): comparable latencies
[4]
  IC50: 23.7 µM
[4]; concentration 10
  GLUN1/N2B inhibition, single recordings: 16.1554 and 31.4381 and 16.8072 and 24.8566
[4]; concentration 30
  GLUN1/N2B inhibition, single recordings: 75.9494 and 77.336 and 42.6087
[4]; concentration 50
  GLUN1/N2B inhibition, single recordings: 84.1069 and 85.4244 and 96.0913
[4]; concentration 100 (unit not given)
  GLUN1/N2B inhibition, single recordings: 91.8425 and 90.7749 and 99.6717 and 97.1777
[4]; concentration 300μ
  GLUN1/N2B inhibition, single recordings: 98.8477 and 99.3957 and 98.8626
[5]; 10 mg kg−1 per day, vs vehicle
  body weight during 21-day chronic administration (in words): no evident effect on body weight
[5]; [6]
  Kidney/Body Weight Ratio (%): 1.122% and 1.187% and 1.1008% and 0.9864% and 1.07% (2×) and 1.145% and 1.0748% and 1.06% and 1.171%
  Liver/Body Weight Ratio (%): 5.072% and 4.477% and 4.872% and 4.814% and 4.623% and 5.084% and 4.1308% and 4.637% and 4.391% and 4.945%
[5]; 10 mg/kg, day 7, individual animals
  Body weight: 24.2 (3×) and 24 and 25.6 and 25.4 and 23.8
[5]; 10 mg/kg, day 8, individual animals
  Body weight: 24 and 25.9 and 24.2 (2×) and 24.4 and 25 and 26
[5]; 10 mg/kg, day 9, individual animals
  Body weight: 25 and 24 and 26.3 and 25.6 (2×) and 24.7 and 24.1
[5]; 10 mg/kg, day 10, individual animals
  Body weight: 26.3 and 25.4 (2×) and 24.1 and 25 and 25.5
[5]; 21-day administration
  liver-to-body and kidney-to-body weight ratio (in words): no appreciable differences
  serum aspartate aminotransferase and urea levels (in words): comparable
  serum creatinine level (in words): marked decreases in creatinine levels
[5]; [7]
  ALT: 36 and 35 and 41 and 32 and 37 and 33 and 31 and 29
  AST: 167 and 207 and 243 and 139 and 147 and 172 and 200 and 131 and 133 and 155
  Cr: 19 and 18 and 20 and 21 and 22 and 23
  Urea: 5.59 and 3.68 and 6 and 5.19 and 5.88 and 6.46 and 5.16 and 5.73 and 5.29 and 5.71
